Test: Stability in mouse liver microsomes
Type: in vitro ADME
Experimental: Both mouse and human liver microsomes were obtained from Merck KGaA, (Darmstadt, Germany), Cat. No. M9441 (Mouse liver microsomes) and M0317 (Human liver microsomes). Assays were conducted in triplicate in 96-deep well polypropylene plates. […] At five time points, reaction mixture aliquots were transferred to 96-shallow well stop plates on ice containing acetonitrile with 0.1 μM propafenone. […] Standard curves for test compound were generated using 5 concentrations in triplicate that were processed as above but with zero incubation time. Stop plates were centrifuged at 2000 g for 10 min and then supernatant aliquots were transferred to a Waters Aquity® UPLC 700 μL 96-well sample plate with cap mat (Waters, Milford, Mass.). The amount of compound remaining in the supernatant was quantified by LC/MS/MS using a Waters Xevo TQ MS (electrospray positive mode) coupled to a Waters Aquity® UPLC (BEH column, C18). Propafenone was used as the internal standard. GraphPad® Prism v 5.04 was used for nonlinear fitting of time course data to generate t1/2 values.

With COc1cccc(C(=O)Nc2ccc(CC(=O)NCc3ccccc3)cc2)c1 [MAK-1, N-(4-(2-(benzylamino)-2-oxoethyl)phenyl)-3-methoxybenzamide] the “loss of compound in mouse liver microsomes” value (lacking NADPH) was “non-significant loss” and the half-life (male, CD-1, mouse, pooled liver microsomes, in the presence of NADPH, 37° C., read-out: stability to oxidative metabolism in mouse liver microsomes (t1/2)) was 35 min.
